Legend:
primary hepatocytes [1] = experiment: Hypoxia-reoxygenation (H/R) injury in primary hepatocytes; type: cell-based, mouse
Procedure: (§1) Primary hepatocytes were prepared from 8 to 10 week old C57BL/6 male mice by perfusion. […] Hepatocytes were resuspended in DMEM/F12 supplemented with 10% FBS, 10 units/mL penicillin, 10 μg/mL streptomycin, and 10 nM dexamethasone mixed with 42% Percoll, and then centrifuged for 5 min at 1,300 rpm. The cells were plated at 1 × 10^6 cells/well in 6-well culture dishes.
Primary hepatocytes were incubated at 37 °C in anaerobic jars (Oxoid, Basingstoke, Hampshire, UK) with oxygen-absorbing packs (AnaeroGen, Oxoid). […] Following various periods of hypoxia, reoxygenation of cells was initiated by opening the chamber and replacing the hypoxic medium with an oxygenated medium.
H/R-induced apoptosis was monitored using the Annexin V-propidium iodide (PI) double-staining kit (BD Biosciences, San Jose, CA, USA) according to the instructions of the manufacturer, allowing quantification by flow cytometry (BD Biosciences). The proportion of apoptotic cells was defined as the percentage of Annexin V-positive cells […].
Intracellular ROS levels were measured using 2′,7′-dichlorofluorescein diacetate (DCF-DA), which converts to fluorescent […] in cells when exposed to ROS. Briefly, after H/R injury, hepatocytes were loaded with 20 μM DCF-DA (Invitrogen) for 10 min at 37 °C. The DCF fluorescence intensity was measured by fluorescence spectrophotometry with 485 nm excitation and 538 nm emission and expressed as a percentage relative to control.
Alanine aminotransferase (ALT) and aspartate aminotransferase (AST) in serum (Asan Pharm, Seoul, Korea), glutathione (GSH, Arbour Assays, Ann Arbour, MI, USA), malondialdehyde (MDA, ab118970, Abcam, Cambridge, UK) in liver tissues, and lactate dehydrogenase (LDH, Biovision, Milpitas, CA, USA) in culture medium were analysed using specific kits. Serum levels of IL-1β, IL-6, TNF-α, and CCL-2 were detected using ELISA kits (all from Invitrogen).
Total RNA was extracted from frozen liver tissues or primary hepatocytes using TRIzol reagent (Invitrogen). RNA was treated with isopropanol, dried using 70% ethanol, and dissolved in diethyl pyrocarbonate-treated distilled water. First-strand cDNA was generated using the random hexamer primer provided in the first-strand cDNA synthesis kit (Applied Biosystems, Foster City, CA, USA). Specific primers were designed using PrimerBank (https://pga.mgh.harvard.edu/primerbank, Table 1). qPCR reactions were performed in a final volume of 10μ L containing 10 ng reverse-transcribed total RNA, 200 nM forward and reverse primers, and PCR master mixture. qPCR was performed in 384-well plates using an ABI Prism™ 7900HT Sequence Detection System (Applied Biosystems).
Nuclear and cytoplasmic fractions were prepared using the NE-PER Nuclear and Cytoplasmic Extraction kit (Thermo Fisher Scientific, Waltham, MA, USA). Tissue homogenates or cell lysates (15 μg) were separated by 6–14% SDS-PAGE and transferred to PVDF membranes. After blocking with 5% skim milk, blots were probed with primary antibodies against: PAK4 (G222), p-PAK4 (S474), p-IKKβ (S176/180), p-IκBα (S32), p-p65 (S536), cleaved caspase-3 (Asp175), Bax (Cell Signalling Technology, Beverly, MA, USA), GAPDH (A531), lamin B1(L75), Bcl2(P65), NQO1 (F252) (Bioworld Technology, St Louis Park, MN, USA), NF-κB p65 (C-20), IKBα (H-4), IKKβ (10A9B6) (Santa Cruz Biotechnology, Dallas, TX, USA), Nrf2 (Proteintech, Rosemont, IL, USA), HO-1 (Enzo Life Sciences, Farmingdale, New York, USA), and p-Thr (Merck KGaA, Darmstadt, Germany). For co-immunoprecipitations, 600 μg protein was incubated with anti-Nrf2 antibodies (Proteintech, Sankt Leon-Rot, Germany) overnight at 4 °C followed by protein G agarose for 2 h at 4 °C. Blots were probed with antibodies against PAK4, Nrf2, or p-Thr. Immunoreactive bands were detected with a Las-4000 imager (GE Healthcare Life Science, Pittsburgh, PA, USA).

[2] = test system: Nrf2 transcriptional activity (ARE); experiment: Nrf2 reporter gene assay (ARE luciferase) in HEK293T cells; type: cell-based, human; conditions: 24 h transfection
Procedure: (§2) The human embryonic kidney cell line HEK293T was obtained from the American Type Culture Collection (Manassas, VA, USA). For the Nrf2 reporter gene assay, 1 μg of a plasmid containing a promoter with an ARE driving luciferase expression was used. Exogenous proteins were expressed by transfecting HEK293T cells with 1 μg of Nrf2 and PAK4 with Lipofectamine 3000 (Invitrogen, Carlsbad, CA, USA). Luciferase activity was measured using a Dual-Luciferase Reporter Assay (Promega, Madison, WI, USA) by Lumat LB 9507 (Berthold, Bad Wildbad, Germany).

primary hepatocytes [3] = experiment: MTT assay for cell viability; type: cell-based, mouse; conditions: SPA7012 at a concentration of less than 1 μM
Procedure: as §1
Cell viability was determined by analysing the reduction of 3–(4, 5-dimethylthiazol-2-yl)-2, 5-diphenyltetrazolium bromide (MTT) to formazan.

[4] = test system: PAK4-mediated phosphorylation of Nrf2; experiment: Co-IP analysis of PAK4-mediated Nrf2 phosphorylation in HEK293T cells; type: cell-based, human; conditions: HEK293T cells overexpressing Nrf2 and PAK4, 24 h transfection
Procedure: as §2
Nuclear and cytoplasmic fractions were prepared using the NE-PER Nuclear and Cytoplasmic Extraction kit (Thermo Fisher Scientific, Waltham, MA, USA). Tissue homogenates or cell lysates (15 μg) were separated by 6–14% SDS-PAGE and transferred to PVDF membranes. […] Immunoreactive bands were detected with a Las-4000 imager (GE Healthcare Life Science, Pittsburgh, PA, USA).

## Cc1nn(-c2cccc(C#CC3(O)CCCCC3)c2)c2ncnc(N)c12 [Compound 14b, 3-(4-Amino-3-methylpyrazolo[3,4-d]pyrimidin-1-yl)phenylethynylcyclohexan-1-ol]
Primary hepatocytes [1]; 1 μM
  H/R-induced oxidative stress (DCF fluorescence, MDA, GSH): decrease
Primary hepatocytes [1]; 1 μM before reoxygenation, 12 h reoxygenation, vs only H/R
  Cell damage (LDH release) after H/R: markedly decreased
Primary hepatocytes [1]; 1 μM, Annexin-V staining and Western blotting
  H/R-induced apoptotic cell death: decrease
Primary hepatocytes [1]; 1 μM, H/R, vs control group
  Phosphorylation levels of IKKβ and p65 in primary hepatocytes: decreased
  Protein levels of IκBα in primary hepatocytes: increased
Primary hepatocytes [1]; 1 μM, culture media protein and hepatocyte mRNA
  H/R-induced cytokine release: decrease
[2]
  Nrf2 transcriptional activity (ARE luciferase activity): increased
Primary hepatocytes [3]
  Effect on cell viability (MTT): little effect
[4]
  PAK4-mediated phosphorylation of Nrf2 at threonine residue: effectively inhibited

From article PMC9354638, “Targeting p21-activated kinase 4 (PAK4) with pyrazolo[3,4-d]pyrimidine derivative SPA7012 attenuates hepatic ischaemia-reperfusion injury in mice” (Journal of Enzyme Inhibition and Medicinal Chemistry, 2022)
